According to publication PMC6017698 (Molecules : A Journal of Synthetic Chemistry and Natural …, 2018):
Read-outs that look alike come from different tables or passages of the source.

Assays:
human recombinant AChE = target: T1, human recombinant AChE (Homo sapiens, UniProt P22303); test: biochemical; assay type: biochemical; conditions: for IC50: human recombinant AChE; for selectivity for hAChE over hBChE inhibition: ratio of hBChE and hAChE IC50; for fold more potent hAChE inhibitor than pyridostigmine: relative to pyridostigmine
T1 construct: purchased Sigma, Milan, Italy
T1 sequence (P22303 32-614): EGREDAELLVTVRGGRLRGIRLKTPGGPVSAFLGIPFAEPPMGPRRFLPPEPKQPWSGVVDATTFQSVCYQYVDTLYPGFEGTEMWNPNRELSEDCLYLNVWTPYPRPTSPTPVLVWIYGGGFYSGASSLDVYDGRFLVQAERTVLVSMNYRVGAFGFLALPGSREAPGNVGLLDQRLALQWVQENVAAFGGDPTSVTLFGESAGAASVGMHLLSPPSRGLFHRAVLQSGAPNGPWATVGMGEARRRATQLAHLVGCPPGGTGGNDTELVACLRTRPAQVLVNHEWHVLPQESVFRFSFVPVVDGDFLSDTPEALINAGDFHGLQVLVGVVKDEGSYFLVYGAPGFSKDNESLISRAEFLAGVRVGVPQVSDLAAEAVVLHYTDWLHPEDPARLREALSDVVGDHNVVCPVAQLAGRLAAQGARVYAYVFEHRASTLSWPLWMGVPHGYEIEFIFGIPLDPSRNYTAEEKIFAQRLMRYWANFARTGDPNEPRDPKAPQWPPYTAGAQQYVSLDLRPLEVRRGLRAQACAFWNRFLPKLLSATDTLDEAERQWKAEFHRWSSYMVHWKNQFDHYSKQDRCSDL

human serum BChE = human serum BChE (Homo sapiens, UniProt P06276); test: biochemical
Sequence of human serum BChE (P06276 29-602): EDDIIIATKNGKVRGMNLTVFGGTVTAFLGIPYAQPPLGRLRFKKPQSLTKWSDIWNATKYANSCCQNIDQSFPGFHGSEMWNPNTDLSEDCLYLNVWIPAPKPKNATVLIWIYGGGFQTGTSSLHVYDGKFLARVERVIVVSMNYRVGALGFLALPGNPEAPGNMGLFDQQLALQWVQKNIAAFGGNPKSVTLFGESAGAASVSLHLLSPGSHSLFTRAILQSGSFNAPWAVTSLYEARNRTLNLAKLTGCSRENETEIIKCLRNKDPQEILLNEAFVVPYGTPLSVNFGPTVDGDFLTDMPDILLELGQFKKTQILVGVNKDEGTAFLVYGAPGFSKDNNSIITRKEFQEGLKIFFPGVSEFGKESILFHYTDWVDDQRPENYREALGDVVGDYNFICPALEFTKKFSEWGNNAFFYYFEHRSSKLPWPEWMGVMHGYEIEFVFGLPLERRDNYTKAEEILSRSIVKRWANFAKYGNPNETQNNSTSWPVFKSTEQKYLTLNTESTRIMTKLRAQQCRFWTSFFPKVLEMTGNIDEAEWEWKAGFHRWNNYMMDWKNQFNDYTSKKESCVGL

[1] = for PAMPA-BBB prediction of BBB permeation: class from Pe value
Description: (§1) The brain permeability (Pe) of the target compounds was determined in vitro using the parallel artificial membrane permeation assay for blood-brain barrier penetration described by Di et al. [41], employing a lipid extract of porcine brain membrane in a mixture of PBS/EtOH 70:30.

in vitro = conditions: PAMPA
Description: as §1

[2] = commercial drugs used for assay validation; cited from earlier work
[3] = mean ± SEM of at least three experiments, each in duplicate, read-out: hAChE IC50
[4] = mean ± SEM of at least three experiments, each in duplicate, read-out: hBChE IC50

SMILES	IC50 (human recombinant AChE; [3]) [nM]	IC50 (human serum BChE; [4]) [nM]	PAMPA-BBB prediction of BBB permeation [1]	Papp (in vitro; pig) [×10⁻⁶ cm/s]	other results
COc1cc(CNC(=O)Cc2cn(CCNc3c4c(nc5cc(Cl)ccc35)CCCC4)nn2)ccc1O [Compound 16, 2-{1-[2-(6-Chloro-1,2,3,4-tetrahydroacridin-9-ylamino)ethyl]-1H-1,2,3-triazol-4-yl}-N-[4-(hydroxy)-3-methoxybenzyl]acetamide]	10	290 ± 10	CNS±	2.97 ± 0.61	IC50 (human recombinant AChE; values given in nM (table footnotes, text), read-out: IC50 hAChE): 7.18 nM; selectivity for hAChE over hBChE inhibition (human recombinant AChE): 40; fold more potent hAChE inhibitor than pyridostigmine (human recombinant AChE): 192 fold
C[n+]1c2c(c(N)c3ccccc31)CCCC2.[I-] [Compound 4, 9-Amino-1,2,3,4-tetrahydro-10-methylacridin-10-ium iodide]	12000 ± 1000	2850 ± 190	CNS− (low BBB permeation (CNS−) is expected for compounds with Pe < 2.07)	–	Papp (in vitro): 1.7 ± 1.5 ×10⁻⁶ cm/s
CN(C)CCCN1c2ccccc2Sc2ccccc21 [Promazine]	–	–	–	–	Reported Pe [2]: 8.8 10^−6 cm s^−1
OCCc1cn(CCNc2c3c(nc4ccccc24)CCCC3)nn1 [Compound 9, 2-{1-[2-(1,2,3,4-Tetrahydroacridin-9-ylamino)ethyl]-1H-1,2,3-triazol-4-yl}ethanol]	1730 ± 120	170 ± 10	CNS− (low BBB permeation (CNS−) is expected for compounds with Pe < 2.07)	0.03 ± 0.001	–
Nc1c2c(nc3cc(Cl)ccc13)CCCC2 [6-chlorotacrine, reference compound]	–	–	CNS+ (High BBB permeation (CNS+) is expected for compounds with Pe > 5.19)	19.8 ± 0.4	–
CCn1cc(C(=O)O)c(=O)c2cc(F)c(N3CCNCC3)cc21 [Norfloxazin, reference compound]	–	–	–	–	Experimental Pe ([1]; commercial drugs used for assay validation, mean ± SD of three independent experiments): 0.9 ± 0.1 10^−6 cm s^−1
COc1cc(CNC(=O)Cc2cn(CCNc3c4c(nc5ccccc35)CCCC4)nn2)ccc1O [Compound 15, N-[4-(hydroxy)-3-methoxybenzyl]-2-{1-[2-(1,2,3,4-tetrahydroacridin-9-ylamino)ethyl]-1H-1,2,3-triazol-4-yl}acetamide]	250 ± 10	50	CNS− (low BBB permeation (CNS−) is expected for compounds with Pe < 2.07)	0.03 ± 0.001	IC50 (human serum BChE; values given in nM (table footnotes), read-out: IC50 hBChE): 54.8 nM
CN1C(C(=O)Nc2ccccn2)=C(O)c2ccccc2S1(=O)=O [Piroxicam]	–	–	–	–	Reported Pe [2]: 2.5 10^−6 cm s^−1
OCCc1cn(CCNc2c3c(nc4cc(Cl)ccc24)CCCC3)nn1 [Compound 10, 2-{1-[2-(6-Chloro-1,2,3,4-tetrahydroacridin-9-ylamino)ethyl]-1H-1,2,3-triazol-4-yl}ethanol]	200 ± 10	3250 ± 170	CNS− (low BBB permeation (CNS−) is expected for compounds with Pe < 2.07)	0.02 ± 0.001	selectivity for hAChE over hBChE inhibition (human recombinant AChE): 16; fold more potent hAChE inhibitor than pyridostigmine (human recombinant AChE): 7 fold
C[n+]1c2c(c(N)c3ccc(Cl)cc31)CCCC2.[I-] [Compound 5, 9-Amino-6-chloro-1,2,3,4-tetrahydro-10-methylacridin-10-ium iodide]	2450 ± 280	22300 ± 1500	CNS− (low BBB permeation (CNS−) is expected for compounds with Pe < 2.07)	–	Papp (in vitro): 1.2 ± 0.8 ×10⁻⁶ cm/s
CC1=CC2Cc3c(c(N)c4ccc(Cl)cc4[n+]3C)C(C1)C2.[I-] (centres unmarked) [Compound 6, 12-Amino-3-chloro-6,7,10,11-tetrahydro-5,9-dimethyl-7,11-methanocycloocta[b]quinolin-5-ium iodide]	–	–	CNS+ (High BBB permeation (CNS+) is expected for compounds with Pe > 5.19)	–	PAMPA-BBB Pe ([1]; PBS/EtOH 70:30, mean of three independent experiments ± SD): 10.90 10^−6 cm/s; Papp (in vitro): 10.9 ± 1.5 ×10⁻⁶ cm/s
